Test results as given in patent US7799795B2, “Aryl nitrile compounds and compositions and their uses in treating inflammatory and related disorders” (Amgen Inc., priority 2005, dated 2010).
Like-named read-outs stand apart in the source and are kept apart here.

Experiments:
[1] = tested on: Human peripheral blood mononuclear cells (PBMCs); assay: I-TAC migration assay; format: cell-based; details: PBMC; activated human PBMCs, human ITAC, in human plasma
Description: I-TAC migration assay: Human peripheral blood mononuclear cells (PBMCs) were activated with OKT3 (purified by AB solutions from hybridoma cell line OKT3 (ATCC CRL-8001)) and IL-2 (Peprotech, Inc., Rocky Hill, N.J., USA). After fourteen days, the cells were loaded with chloromethyl-fluoroscein-diacetate (CMFDA) (Molecular Probes, Inc.) by incubating the activated PBMCs in 1 ng/mL CMFDA for >1.5 hours at 37° C. in a tissue culture incubator. While cells were loading, the test compounds were diluted in DMSO to a concentration that is 100-times the intended final assay concentration. Next, 100 ng/mL of human ITAC (Peprotech) in human plasma (EDTA, drug free, Biological Specialty Corp) was prepared. Test compounds were added to the human ITAC preparation. Cells were washed once in prewarmed (37° C.) RPMI (Invitrogen) media with 0.5% BSA and resuspended to 5 million cells/ml in human plasma. The test compounds were added to the PBMCs. A 96-well chemotaxis migration plate (NeuroProbe, Inc.) was assembled by adding, per well, 30 uL of ITAC/compound mixture in the lower chamber, placing the […] membrane on top of the ITAC/compound well, and adding 50 uL of the PBMC/compound mixture to the well. The plates were covered and incubated in a humidified tissue culture incubator for 2.5 hours. A standard curve of CMFDA-loaded cells to be used as a reference for the test plates was prepared. Migration plates were disassembled and are read in a fluorometric plate reader set to 475 nm absorbance, 517 nm emission. The fluorometric reading was converted to cell number using the standard curve and calculating the percentage of migrating cells.

CXCR3 [2] = molecular target: T1, CXCR3 (Homo sapiens, UniProt P49682); assay: CXCR3 binding assay in binding buffer (125I-labelled chemokine, CXCR3-expressing cells); details: absence of human plasma
T1 construct: ChemoCentryx
T1 sequence (P49682 1-368): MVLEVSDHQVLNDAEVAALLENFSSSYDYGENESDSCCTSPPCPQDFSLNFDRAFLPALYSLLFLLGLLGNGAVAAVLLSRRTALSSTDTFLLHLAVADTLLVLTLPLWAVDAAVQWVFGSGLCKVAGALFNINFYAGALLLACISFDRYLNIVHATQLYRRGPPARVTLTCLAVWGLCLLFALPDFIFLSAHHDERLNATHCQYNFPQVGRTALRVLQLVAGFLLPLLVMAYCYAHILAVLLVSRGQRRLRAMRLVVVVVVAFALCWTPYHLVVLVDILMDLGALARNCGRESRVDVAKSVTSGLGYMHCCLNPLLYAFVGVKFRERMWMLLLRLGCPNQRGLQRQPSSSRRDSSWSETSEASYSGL
Description: (§1) CXCR3 Binding Assay: CXCR3 binding assays were conducted as previously described (see, e.g., Example 12 in WO 02/083143, incorporated herein by reference in its entirety), in the absence (“binding buffer”) or presence of human plasma. Unless otherwise noted, all reagents used are available from commercial sources (e.g., Sigma-Aldrich, St. Louis, Mo., USA). Test compounds are diluted in DMSO to a concentration that is 40-times the intended final assay concentration; 5 μL are transferred to each well of a 96-well flat-bottomed polypropylene plate (e.g., from Greiner, Inc.). CXCR3-expressing cells obtained from ChemoCentryx were used in the assays to generate the data set forth below. The cells were resuspended in assay buffer (25 mM Hepes, 80 mM NaCl, 1 mM CaCl2, 5 mM MgCl2, 0.2% bovine serum albumin, pH 7.1, stored at 4° C.) at 5 million cells per mL; 100 μL of this cell suspension is then transferred to each well of a 96-well plate containing the diluted test compounds. ^125I-labelled chemokine (purchased from commercial sources, e.g., Amersham, PE Life Sciences) is diluted in assay buffer to a concentration of approximately […]; 100 μL of this chemokine solution is transferred to each well of a 96-well plate containing compounds and cell suspension. The plates are sealed with commercially available foil plate seals (e.g., from E&K Scientific), and stored at 4° C. for a period of 2 to 4 h, shaking gently. At the end of this incubation period, the contents of the assay plates are transferred to GF/B filter plates (Packard) that have been pre-coated by dipping into a solution containing 0.3% polyethyleneimine (Sigma-Aldrich), using a cell harvester (Packard), and washing twice with wash buffer (25 mM Hepes, 500 mM NaCl, 1 mM CaCl2, 5 mM MgCl2, pH 7.1, stored at room temperature). The filter plates are sealed on the bottom with plate seals (Packard), 50 μL of Microscint-20 scintillation fluid (Packard) is added to each well, and the top of the plates are sealed with clear plastic (TopSeal A, Packard). The plates are counted on a scintillation counter, such as a Packard TopCount. To measure non-specific binding, 4 wells containing unlabelled “cold” chemokine were included on each 96-well plate. To measure maximum binding, 4 wells containing 5 μL of DMSO, 100 μL of cell suspension and 100 μL of ^125I-labelled chemokine solution were included on each 96-well plate. Data were analyzed using commercially available software (e.g., Excel from Microsoft, Prism from GraphPad Software Inc.).

CXCR3 [3] = molecular target: T1, CXCR3; assay: CXCR3 binding assay in presence of human plasma
Description: as §1

CYP3A4 [4] = assay: Time dependent CYP inhibition assay (midazolam, pooled human liver microsomes); details: preincubation with NADPH, midazolam marker substrate
Description: (§3) CYP Inhibition Assay: Time dependent CYP inhibition assays were initiated by incubating a test compound in 0.1 mM phosphate buffer containing pooled human liver microsomes (1 mg/mL protein) in the presence of NADPH for 0, 15 and 30 minutes. At each time point, an aliquot of the preincubation mixture was removed and added to 0.1 mM phosphate buffer containing marker substrate (midazolam) and fresh NADPH. The residual CYP activity, after the preincubation times of 0, 15, and 30 minutes, was monitored for 5 minutes. Data are expressed as the % 1-OH midazolam formation at 15 minutes compared to that formed at 0 minutes. […] DMSO (vehicle control) caused an approximate 10% drop in CYP activity over 15 minutes.

Rat PK (IV) = details: in vivo
Description: (§2) Pharmacokinetics of exemplary compounds of the invention was assessed in rats.

Rat PK PO = format: in vivo; details: Sprague-Dawley, plasma; for bioavailability: read-out: Rat PK PO F %
Description: In Vivo Metabolic Evaluation in Rat: To study the metabolic fate of test compounds in vivo, Sprague-Dawley (SD) rats were administered (orally gavage) test compound in suspension. Blood samples (˜0.3 mL/timepoint) were collected at 1, 2, 4, 8, 24, 30 and 48 hours post-dose into EDTA containing tubes. All blood samples were collected via tail artery venipuncture under isofluorane anesthesia. Blood samples were processed for plasma by centrifugation and stored frozen until analysis (−20° to −70° C.). Samples were analyzed using a sensitive and selective LC/MS/MS method. Briefly, samples were prepared for analysis using protein precipitation. An aliquot of the resulting supernatant was subjected to LC/MS/MS analysis. Separation of the analytes from endogenous material was achieved using an reverse phase HPLC. Column effluent was monitored using a Sciex API 365 triple quadrapole mass spectrometer with a Sciex TurboIon Spray probe. Unknown concentrations of testing articles were determined using a calibration curve from 1 to 2000 ng/mL.
as §2

CYP3A4 [5] = details: microsomes
Description: as §3

Structure (SMILES)	IC50 (CXCR3 [2])	IC50 (CXCR3 [3])	IC50 [1]	other results
CCS(=O)(=O)CCN(C(=O)Cc1ccc(F)c(C(F)(F)F)c1)[C@H](C)c1nc2ncccc2c(=O)n1-c1ccc(O)cc1				Time Dependent CYP3A4 Inhibition (CYP3A4 [4]): Yes
CCS(=O)(=O)CCN(C(=O)Cc1ccc(F)c(C(F)(F)F)c1)[C@H](C)c1nc2ccccn2c(=O)c1-c1ccc(C#N)cc1			41 nM	
CCS(=O)(=O)CCN(C(=O)Cc1ccc(F)c(C(F)(F)F)c1)[C@H](C)c1nc2ncccn2c1-c1ccc(O)cc1	10000 nM	10000 nM		Time Dependent CYP3A4 Inhibition (CYP3A4 [4]): Yes
CCS(=O)(=O)CCN(C(=O)Cc1ccc(F)c(C(F)(F)F)c1)[C@H](C)c1nc2ncccn2c1-c1ccc(C#N)cc1	10 nM	49 nM	83 nM	
CCS(=O)(=O)CCN(C(=O)Cc1ccc(C(F)(F)F)c(F)c1)[C@H](C)c1nc2ncccn2c(=O)c1-c1ccc(C#N)cc1				Vd (Rat PK (IV); read-out: Rat PK(IV) Vdss): 0.31 L/kg; MRT (Rat PK PO): 3.96 h; bioavailability (Rat PK PO): 24%
CCS(=O)(=O)CCN(C(=O)Cc1ccc(F)c(C(F)(F)F)c1)[C@H](C)c1nc2ncccc2c(=O)n1-c1ccc(C#N)cc1 [drawing 192]			120 nM	Time Dependent CYP3A4 Inhibition (CYP3A4 [5]): NO
CCS(=O)(=O)CCN(C(=O)Cc1ccc(F)c(C(F)(F)F)c1)[C@H](C)c1nc2ncccc2c(=O)n1-c1ccc(C#N)cc1 [drawing 199]				clearance (Rat PK (IV); read-out: Rat PK(IV) Cl (converted)): 39.7 mL/min/kg; MRT (Rat PK PO): 1.5 h; bioavailability (Rat PK PO): 47.2%

Second part, led by results:

IC50 (CXCR3 [2])	IC50 (CXCR3 [3])	Structure (SMILES)	IC50 [1]	other results
1 nM	7 nM	CCOc1ccc(-n2c([C@@H](C)N(CCS(=O)(=O)CC)C(=O)Cc3ccc(F)c(C(F)(F)F)c3)nc3ncccc3c2=O)cc1	22 nM	
1 nM	57 nM	CCOc1ccc(-c2c([C@@H](C)N(CCS(=O)(=O)CC)C(=O)Cc3ccc(F)c(C(F)(F)F)c3)nc3ccccn3c2=O)cc1	183 nM	
816 nM	4080 nM	CCS(=O)(=O)CCN(C(=O)Cc1ccc(F)c(C(F)(F)F)c1)[C@H](C)c1nc2ccccn2c(=O)c1-c1ccc(O)cc1		Time Dependent CYP3A4 Inhibition (CYP3A4 [4]): Yes
4 nM	70 nM	CCOc1ccc(-c2c([C@@H](C)N(CCS(=O)(=O)CC)C(=O)Cc3ccc(F)c(C(F)(F)F)c3)nc3ncccn23)cc1	1500 nM	
